Columns and labels:
[1] = in vitro; details: dog, MDCK cells
[2] = Inhibition of Influenza A virus H5N1 Neuraminidase
[3] = Inhibition of Influenza A virus H5N2 Neuraminidase
[4] = in vitro; details: human, liver microsomes
[5] = in vitro; details: human, liver microsomes; remark: listed apart in the source
[6] = in vitro; details: human, liver microsomes; remark: listed apart in the source
[7] = in vitro; details: human, liver
[8] = in vitro; details: human, liver microsomes; remark: listed apart in the source
[9] = Inhibition of Influenza A virus H9N2-S2 Neuraminidase
[10] = Inhibition of Influenza A virus H5N1-1220 Neuraminidase
[11] = biological target: Cytochrome P450 2C9 (Homo sapiens, UniProt P11712); assay type: ADME, microsomes, Liver, Microsome
[12] = Subacute toxicity in Kunming mouse assessed as animal death at 50 mg/kg, IG mesured every second day for 2 weeks; assay type: organism-based; details: in vivo, po, 336 h
[13] = in vivo; details: Sprague-Dawley, rat, iv, 2 mg/kg
[14] = Subacute toxicity in Kunming mouse assessed as food consumption at 50 mg/kg, IG mesured every second day for 2 weeks; assay type: organism-based; details: in vivo, po, 336 h
[15] = in vivo; details: Sprague-Dawley, rat, po, 20 mg/kg
[16] = Acute toxicity in Kunming mouse assessed as lethargy at 1000 mg/kg, IG observed upto 1 week; assay type: organism-based; details: in vivo, po, 168 h, time < 1 weeks
[17] = Half life in Sprague-Dawley rat at 2 mg/kg, iv measured upto 24 hrs by LC-MS/MS analysis; assay type: ADME, organism-based; details: in vivo
[18] = Acute toxicity in Kunming mouse assessed as ruffled fur at 1000 mg/kg, IG observed upto 1 week; assay type: organism-based; details: in vivo, po, 168 h, time < 1 weeks
[19] = Acute toxicity in Kunming mouse assessed as clonic convulsion at 1000 mg/kg, IG observed upto 1 week; assay type: organism-based; details: in vivo, po, 168 h, time < 1 weeks
[20] = Acute toxicity in Kunming mouse assessed as animal death at 1000 mg/kg, IG observed upto 1 week; assay type: organism-based; details: in vivo, po, 168 h, time < 1 weeks
[21] = Tmax in Sprague-Dawley rat at 20 mg/kg, po measured upto 24 hrs by LC-MS/MS analysis; assay type: ADME, organism-based; details: in vivo
[22] = Subacute toxicity in male Kunming mouse assessed as increase in body weight at 50 mg/kg, IG mesured every second day for 2 weeks; assay type: organism-based; details: in vivo, po, 336 h
[23] = Acute toxicity in Kunming mouse assessed as increase in body weight at 1000 mg/kg, IG observed upto 1 week; assay type: organism-based; details: in vivo, po, 168 h, time < 1 weeks
[24] = biological target: Cytochrome P450 3A4 (Homo sapiens, UniProt P08684)
[25] = Subacute toxicity in female Kunming mouse assessed as increase in body weight at 50 mg/kg, IG mesured every second day for 2 weeks; assay type: organism-based; details: in vivo, po, 336 h
[26] = Oral bioavailability in Sprague-Dawley rat at 20 mg/kg measured upto 24 hrs by LC-MS/MS analysis; assay type: ADME, organism-based; details: in vivo
[27] = in vivo; details: Sprague-Dawley, rat, iv, 2 mg/kg; remark: listed apart in the source
[28] = Volume of distribution in Sprague-Dawley rat at 2 mg/kg, iv measured upto 24 hrs by LC-MS/MS analysis; assay type: ADME, organism-based; details: in vivo
[29] = biological target: Cytochrome P450 2C19 (Homo sapiens, UniProt P33261); assay type: ADME, microsomes, Liver, Microsome
[30] = Half life in Sprague-Dawley rat at 20 mg/kg, po measured upto 24 hrs by LC-MS/MS analysis; assay type: ADME, organism-based; details: in vivo
[31] = biological target: Cytochrome P450 2D6 (Homo sapiens, UniProt P10635)
[32] = Tmax in Sprague-Dawley rat at 2 mg/kg, iv measured upto 24 hrs by LC-MS/MS analysis; assay type: ADME, organism-based; details: in vivo
[33] = Cmax in Sprague-Dawley rat at 2 mg/kg, iv measured upto 24 hrs by LC-MS/MS analysis; assay type: ADME, organism-based; parameters: time < 24 hrs, dose 2 mg/kg, route iv; details: in vivo
[34] = Subacute toxicity in Kunming mouse assessed as water consumption at 50 mg/kg, IG mesured every second day for 2 weeks; assay type: organism-based; details: in vivo, po, 336 h
[35] = biological target: T1, Cytochrome P450 1A2 (Homo sapiens, UniProt P05177)
T1 sequence (P05177 whole entry): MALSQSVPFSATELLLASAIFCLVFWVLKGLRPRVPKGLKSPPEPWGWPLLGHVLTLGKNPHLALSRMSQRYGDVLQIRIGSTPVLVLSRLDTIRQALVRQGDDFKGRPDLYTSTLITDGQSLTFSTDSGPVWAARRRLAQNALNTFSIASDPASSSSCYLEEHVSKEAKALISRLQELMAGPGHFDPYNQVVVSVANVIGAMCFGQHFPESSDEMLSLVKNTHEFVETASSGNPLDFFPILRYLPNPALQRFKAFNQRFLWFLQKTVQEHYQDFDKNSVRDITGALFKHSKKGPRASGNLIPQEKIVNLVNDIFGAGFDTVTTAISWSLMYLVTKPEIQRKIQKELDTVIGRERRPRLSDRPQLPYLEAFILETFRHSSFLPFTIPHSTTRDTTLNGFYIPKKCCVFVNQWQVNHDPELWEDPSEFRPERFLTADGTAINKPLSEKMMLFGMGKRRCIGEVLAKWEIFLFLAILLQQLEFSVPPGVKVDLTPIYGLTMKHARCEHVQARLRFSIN

[36] = Acute toxicity in Kunming mouse assessed as anorexia at 1000 mg/kg, IG observed upto 1 week; assay type: organism-based; details: in vivo, po, 168 h, time < 1 weeks
[37] = Cmax in Sprague-Dawley rat at 20 mg/kg, po measured upto 24 hrs by LC-MS/MS analysis; assay type: ADME, organism-based; parameters: dose 20 mg/kg, time < 24 hrs, route po; details: in vivo
[38] = rat, in vivo, po, 20 mg/kg, 24 h

Chain of Cytochrome P450 3A4 (P08684 whole entry): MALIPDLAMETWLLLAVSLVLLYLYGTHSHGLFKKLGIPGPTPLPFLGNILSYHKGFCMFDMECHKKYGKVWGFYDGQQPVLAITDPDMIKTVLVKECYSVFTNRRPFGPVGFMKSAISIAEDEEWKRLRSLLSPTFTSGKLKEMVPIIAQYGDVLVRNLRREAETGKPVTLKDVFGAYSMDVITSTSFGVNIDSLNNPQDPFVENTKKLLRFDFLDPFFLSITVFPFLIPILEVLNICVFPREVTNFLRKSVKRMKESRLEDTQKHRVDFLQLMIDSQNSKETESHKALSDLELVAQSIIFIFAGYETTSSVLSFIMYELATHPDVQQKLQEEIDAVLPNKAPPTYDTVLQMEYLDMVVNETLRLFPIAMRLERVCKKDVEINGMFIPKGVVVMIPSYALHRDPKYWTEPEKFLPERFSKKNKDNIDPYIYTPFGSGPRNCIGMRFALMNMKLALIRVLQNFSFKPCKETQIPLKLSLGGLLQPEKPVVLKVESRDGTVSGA
Chain of Cytochrome P450 2C9 (P11712 whole entry): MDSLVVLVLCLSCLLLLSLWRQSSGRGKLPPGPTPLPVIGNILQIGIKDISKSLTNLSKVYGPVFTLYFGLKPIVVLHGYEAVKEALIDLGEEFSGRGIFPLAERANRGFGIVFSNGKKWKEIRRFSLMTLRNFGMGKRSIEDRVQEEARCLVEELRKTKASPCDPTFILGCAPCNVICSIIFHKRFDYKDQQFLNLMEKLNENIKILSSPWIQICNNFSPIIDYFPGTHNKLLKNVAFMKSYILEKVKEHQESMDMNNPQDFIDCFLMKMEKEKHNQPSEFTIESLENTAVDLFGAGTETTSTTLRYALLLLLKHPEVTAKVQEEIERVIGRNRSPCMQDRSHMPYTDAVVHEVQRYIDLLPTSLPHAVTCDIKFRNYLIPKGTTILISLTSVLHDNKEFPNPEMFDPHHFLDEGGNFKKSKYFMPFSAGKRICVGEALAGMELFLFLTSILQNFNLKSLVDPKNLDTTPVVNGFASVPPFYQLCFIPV
Chain of Cytochrome P450 2D6 (P10635 whole entry): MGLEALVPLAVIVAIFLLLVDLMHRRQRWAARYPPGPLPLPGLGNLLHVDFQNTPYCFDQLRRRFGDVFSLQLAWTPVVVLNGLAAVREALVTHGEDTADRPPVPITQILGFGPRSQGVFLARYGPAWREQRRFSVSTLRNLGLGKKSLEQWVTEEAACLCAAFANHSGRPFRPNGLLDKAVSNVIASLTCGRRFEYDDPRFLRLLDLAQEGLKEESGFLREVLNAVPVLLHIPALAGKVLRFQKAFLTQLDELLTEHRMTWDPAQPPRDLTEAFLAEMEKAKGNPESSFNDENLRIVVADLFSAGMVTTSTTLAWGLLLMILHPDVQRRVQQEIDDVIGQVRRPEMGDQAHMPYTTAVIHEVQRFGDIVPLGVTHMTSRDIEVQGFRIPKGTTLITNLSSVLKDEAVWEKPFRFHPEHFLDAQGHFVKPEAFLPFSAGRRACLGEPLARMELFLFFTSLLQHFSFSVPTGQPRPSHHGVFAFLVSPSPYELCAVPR
Chain of Cytochrome P450 2C19 (P33261 whole entry): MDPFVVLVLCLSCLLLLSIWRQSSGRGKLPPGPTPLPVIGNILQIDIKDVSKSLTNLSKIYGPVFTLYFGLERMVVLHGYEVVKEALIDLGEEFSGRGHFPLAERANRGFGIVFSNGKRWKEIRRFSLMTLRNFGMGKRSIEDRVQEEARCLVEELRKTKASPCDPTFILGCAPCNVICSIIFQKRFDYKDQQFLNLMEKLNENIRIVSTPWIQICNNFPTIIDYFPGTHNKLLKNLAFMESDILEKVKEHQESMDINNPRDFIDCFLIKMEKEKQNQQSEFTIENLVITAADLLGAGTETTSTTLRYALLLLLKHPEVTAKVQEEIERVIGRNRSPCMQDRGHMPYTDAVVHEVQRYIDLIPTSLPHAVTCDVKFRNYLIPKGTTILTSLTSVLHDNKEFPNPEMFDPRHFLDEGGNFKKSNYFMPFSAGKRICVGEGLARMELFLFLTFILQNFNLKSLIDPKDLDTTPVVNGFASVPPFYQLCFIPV

`CCC(CC)O[C@@H]1C=C(C(=O)O)C[C@H](N)[C@H]1NC(C)=O` [OSELTAMIVIR CARBOXYLATE] gave a CC50 at 48 h [1] of 250 µM.

`CCC(CC)O[C@@H]1C=C(C(=O)O)C[C@H](NCc2ccc(Sc3ccccc3)cc2)[C@H]1NC(C)=O` gave an IC50 [2] of 0.00096 µM and an IC50 [3] of 0.869 µM.

Molecule `C[C@]12CC[C@H]3[C@@H](CCC4=CC(=O)CC[C@@]43C)[C@@H]1CC[C@@H]2O` [TESTOSTERONE] has a remaining at 1 h [4] of 9.8%, a microsomal CLint [5] of 73.6 µL/min/mg and a remaining at 1 h [6] of 87.2%. The CLint scaled [7] was 66.2 mL/min/kg and the half-life [8] was 18.8 min.

`CCC(CC)O[C@@H]1C=C(C(=O)O)C[C@H](NCc2ccc3oc4ccccc4c3c2)[C@H]1NC(C)=O` showed a CC50 at 48 h [1] of 250 µM.

`CCC(CC)O[C@@H]1C=C(C(=O)O)C[C@H](NCc2c3ccccc3cc3ccccc23)[C@H]1NC(C)=O` gave a CC50 at 48 h [1] of 250 µM.

Work on `CCC(CC)O[C@@H]1C=C(C(=O)O)C[C@H](NCc2ccc3c(c2)Cc2ccccc2-3)[C@H]1NC(C)=O` yielded a CC50 at 48 h [1] of 250 µM.

In the case of `CCC(CC)O[C@@H]1C=C(C(=O)O)C[C@H](NCc2ccc(-c3ccccc3)cc2)[C@H]1NC(C)=O`, the IC50 [9] is reported as 0.58 µM and the IC50 [10] is reported as 0.0019 µM.

In the case of `CCC(CC)O[C@@H]1C=C(C(=O)O)C[C@H](NCc2ccc3c(c2)c2ccccc2n3CC)[C@H]1NC(C)=O`, the CC50 at 48 h [1] is reported as 250 µM.

`O=C(O)Cc1ccccc1Nc1c(Cl)cccc1Cl` [DICLOFENAC] showed a microsomal CLint [5] of 168 µL/min/mg, a CLint scaled [7] of 151 mL/min/kg and a half-life [8] of 8.2 min.

In the case of `CCC(CC)O[C@@H]1C=C(C(=O)O)C[C@H](NCc2ccc3sc4ccccc4c3c2)[C@H]1NC(C)=O`, the IC50 [11] is reported as 60.8 µM, the Activity [12] is reported as “Non-Toxic” and the AUC(0-t) at 24 h [13] is reported as 4280 ng·h/mL. For the same molecule, the Activity [14] was “Non-Toxic”, the remaining at 1 h [4] was 99.6% and the AUC(0-t) at 24 h [15] was 5830 ng·h/mL. For the same molecule, the Activity [16] was “Non-Toxic”, the half-life [17] was 44.6 min and the Activity [18] was “Non-Toxic”. For the same molecule, the CC50 at 48 h [1] was 250 µM, the Activity [19] was “Non-Toxic” and the Activity [20] was “Non-Toxic”. The Tmax [21] was 30 min, the Activity [22] was “Toxic” and the microsomal CLint [5] was less than 9.6 µL/min/mg. For the same molecule, the Activity [23] was “Toxic”, the IC50 [24] was greater than 100 µM and the Activity [25] was “Toxic”. For the same molecule, the bioavailability [26] was 13.7%, the AUC(0-inf) at 24 h [27] was 4290 ng·h/mL and the Vd [28] was 0.161 L/kg. It also gave a remaining at 1 h [6] of 84.7%, an IC50 [29] greater than 100 µM and a half-life [30] of 61.8 min. The IC50 [31] was 58.9 µM, the Tmax [32] was 4.98 min and the Cmax [33] was 13000 ng/mL. The Activity [34] was “Non-Toxic”, the IC50 [35] was 89.4 µM and the CLint scaled [7] was less than 8.6 mL/min/kg. The half-life [8] was greater than 145 min, the Activity [36] was “Non-Toxic” and the Cmax [37] was 6300 ng/mL. It also gave an AUC [38] of 5854 ng·h/mL.

Reference: ChEMBL document CHEMBL5150010 (J Med Chem, 2021)
